Results as given in US20260035365A1, “1H-PYRROLO[3,2-B]PYRIDINE DERIVATIVES AS IRREVERSIBLE INHIBITORS OF MUTANT EGFR FOR THE TREATMENT OF CANCER” (Bayer Aktiengesellschaft, priority 2022, published 2026).

Assays:
[1] = biological target: mutEGFR (D770_N771insNPG, T790); experiment: mutEGFR (D770_N771insNPG, T790) kinase assay; assay type: biochemical, human
BA/F3 (insSVD) cells = experiment: Ba/F3 cell survival assay (Cell Titer-Glo), EGFR-insSVD; assay type: cell-based; details: Mus musculus, BaF3, 48 h, without IL-3, with EGF
Summary of the method: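 Viability read by CellTiter-Glo luminescence after 48 h compound exposure at 37° C, 4000 cells/well. Retrovirally transduced, puromycin-selected Ba/F3 lines carrying EGFR-insSVD ± T790M grew IL-3-free with 10 ng/mL EGF for 2 days beforehand; compound delivered by 100 nL pin.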

[2] = biological target: mutEGFR (D770_N771insSVD) (Homo sapiens, UniProt P00533, INS767SVD); experiment: Exon20-mutant-EGFR (D770_N771insSVD) TR-FRET kinase assay; assay type: biochemical; details: 2 mM ATP, 15 min preincubation
Sequence of mutEGFR (D770_N771insSVD) (P00533 with tags, fused parts or gaps INS767SVD limits assumed): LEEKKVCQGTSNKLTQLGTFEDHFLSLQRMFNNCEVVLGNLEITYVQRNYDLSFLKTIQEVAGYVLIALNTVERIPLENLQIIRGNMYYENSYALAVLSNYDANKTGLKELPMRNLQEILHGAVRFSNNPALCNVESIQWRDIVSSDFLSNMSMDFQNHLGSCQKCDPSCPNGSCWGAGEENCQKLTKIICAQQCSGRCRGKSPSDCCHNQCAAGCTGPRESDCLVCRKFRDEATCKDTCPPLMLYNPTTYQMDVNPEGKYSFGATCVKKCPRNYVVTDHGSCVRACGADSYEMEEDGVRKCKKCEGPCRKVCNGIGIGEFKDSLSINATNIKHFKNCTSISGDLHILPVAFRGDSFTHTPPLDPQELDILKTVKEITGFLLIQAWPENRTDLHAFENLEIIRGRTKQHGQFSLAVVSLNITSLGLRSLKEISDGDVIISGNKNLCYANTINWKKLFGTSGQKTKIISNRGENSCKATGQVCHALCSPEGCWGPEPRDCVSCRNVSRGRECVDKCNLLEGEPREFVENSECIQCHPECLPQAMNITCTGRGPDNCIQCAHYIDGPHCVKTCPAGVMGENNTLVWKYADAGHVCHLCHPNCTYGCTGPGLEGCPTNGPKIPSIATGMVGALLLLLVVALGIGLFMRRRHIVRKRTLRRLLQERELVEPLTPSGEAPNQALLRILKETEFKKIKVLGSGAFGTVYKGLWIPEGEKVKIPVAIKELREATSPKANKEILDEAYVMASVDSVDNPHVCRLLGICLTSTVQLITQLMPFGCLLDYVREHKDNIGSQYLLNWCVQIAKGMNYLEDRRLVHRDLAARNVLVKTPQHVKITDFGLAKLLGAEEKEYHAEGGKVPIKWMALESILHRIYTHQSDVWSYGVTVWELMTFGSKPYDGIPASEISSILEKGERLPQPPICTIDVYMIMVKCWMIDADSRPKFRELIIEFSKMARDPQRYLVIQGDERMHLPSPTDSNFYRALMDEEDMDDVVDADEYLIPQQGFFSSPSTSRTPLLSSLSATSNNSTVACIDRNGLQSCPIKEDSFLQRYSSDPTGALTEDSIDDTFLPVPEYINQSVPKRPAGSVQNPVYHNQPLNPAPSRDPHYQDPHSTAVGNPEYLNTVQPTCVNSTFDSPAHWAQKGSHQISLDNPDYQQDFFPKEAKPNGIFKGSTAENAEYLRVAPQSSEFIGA
Summary of the method: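 GST-fused human EGFR fragment R669-A1210 carrying the SVD insertion, Sf9-expressed, typically 15 pg/μl, was preincubated with compound for 15 min at 22° C in pH 7.0 Hepes/MgCl2 buffer. Phosphorylation was read by HTRF (665/620 nm ratio), normalised to no-inhibitor and no-enzyme controls.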

Sequence of mutEGFR (D770_N771insNPG, T790) (P00533 with tags, fused parts or gaps INS770NPG limits assumed): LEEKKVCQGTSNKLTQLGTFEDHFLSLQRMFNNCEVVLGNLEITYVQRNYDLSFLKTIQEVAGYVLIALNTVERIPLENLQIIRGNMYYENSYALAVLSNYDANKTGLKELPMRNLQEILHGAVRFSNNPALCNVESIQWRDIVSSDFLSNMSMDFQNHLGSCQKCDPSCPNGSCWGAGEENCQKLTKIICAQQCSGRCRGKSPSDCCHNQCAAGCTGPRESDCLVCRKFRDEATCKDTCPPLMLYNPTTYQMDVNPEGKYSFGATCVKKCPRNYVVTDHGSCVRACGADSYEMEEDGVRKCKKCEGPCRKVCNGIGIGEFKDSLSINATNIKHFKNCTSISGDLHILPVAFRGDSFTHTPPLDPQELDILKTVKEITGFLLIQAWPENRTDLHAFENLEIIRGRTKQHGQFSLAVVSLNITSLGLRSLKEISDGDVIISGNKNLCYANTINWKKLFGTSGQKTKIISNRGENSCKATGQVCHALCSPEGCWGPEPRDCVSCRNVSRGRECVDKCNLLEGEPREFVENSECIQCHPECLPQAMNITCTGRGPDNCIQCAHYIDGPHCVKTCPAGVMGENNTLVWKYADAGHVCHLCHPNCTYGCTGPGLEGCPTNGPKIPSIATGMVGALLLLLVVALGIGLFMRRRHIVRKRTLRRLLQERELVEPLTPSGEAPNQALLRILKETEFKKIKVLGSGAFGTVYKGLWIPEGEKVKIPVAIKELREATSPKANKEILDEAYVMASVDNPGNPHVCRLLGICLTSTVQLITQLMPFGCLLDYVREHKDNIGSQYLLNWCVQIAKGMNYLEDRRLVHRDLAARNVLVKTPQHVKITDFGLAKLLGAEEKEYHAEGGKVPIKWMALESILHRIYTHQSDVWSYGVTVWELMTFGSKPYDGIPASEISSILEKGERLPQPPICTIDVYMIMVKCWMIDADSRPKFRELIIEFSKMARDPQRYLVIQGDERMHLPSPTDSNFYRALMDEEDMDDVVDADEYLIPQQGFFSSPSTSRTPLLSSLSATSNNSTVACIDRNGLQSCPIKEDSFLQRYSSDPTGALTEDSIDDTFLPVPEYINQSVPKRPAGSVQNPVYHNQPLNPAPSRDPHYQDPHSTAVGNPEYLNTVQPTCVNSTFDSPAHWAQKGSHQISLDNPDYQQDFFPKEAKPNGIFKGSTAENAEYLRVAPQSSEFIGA

Row | SMILES | IC50 [1] [nM] | IC50 (BA/F3 (insSVD) cells) [nM] | IC50 [2] [nM]
1 | C=CC(=O)N1CCOCC1COc1cnccc1-c1[nH]c2cccnc2c1-c1cc(Cl)ccc1F (stereo not drawn) [Example 151, 1-{3-[({4-[3-(5-chloro-2-fluorophenyl)-1H-pyrrolo[3,2-b]pyridin-2-yl]pyridin-3-yl}oxy)methyl]morpholin-4-yl}prop-2-en-1-one] | 81.1 | 282 | 11
2 | C=CC(=O)N(C)CCOc1cnccc1-c1[nH]c2cccnc2c1-c1cc(CC)ccc1F [Example 48, N-[2-({4-[3-(5-ethyl-2-fluorophenyl)-1H-pyrrolo[3,2-b]pyridin-2-yl]pyridin-3-yl}oxy)ethyl]-N-methylprop-2-enamide] | 109 | 962 | 36.8
3 | C=CC(=O)N1CCC1(C)COc1cnccc1-c1[nH]c2cccnc2c1-c1ccccc1 (racemic) [Example 145, 1-[(2RS)-2-methyl-2-({[4-(3-phenyl-1H-pyrrolo[3,2-b]pyridin-2-yl)pyridin-3-yl]oxy}methyl)azetidin-1-yl]prop-2-en-1-one] | 17400 | 9980 | 3510
4 | C=CC(=O)N1CC[C@@H]1COc1cnccc1-c1[nH]c2cccnc2c1-c1ccccc1 (single isomer, unassigned) [Example 140] | 1.33 | 9.73 | 0.3
5 | C=CC(=O)N1CC[C@H]1COc1cnccc1-c1[nH]c2cccnc2c1-c1cccc(C(F)(F)F)c1 (single isomer, unassigned) [Example 143] | 678 | 3840 | 129
6 | C#CC(=O)N1CCC(Oc2cnccc2-c2[nH]c3cccnc3c2-c2cccc(C(F)(F)F)c2)C1 (racemic) [Example 123, 1-{(3RS)-3-[(4-{3-[3-(trifluoromethyl)phenyl]-1H-pyrrolo[3,2-b]pyridin-2-yl}pyridin-3-yl)oxy]pyrrolidin-1-yl}prop-2-yn-1-one] | 701 | 832 | 173
7 | O=C(/C=C/CN1CCCC1)N1CCC[C@H]1COc1cnccc1-c1[nH]c2cccnc2c1-c1ccccc1 [Example 99, (2E)-1-[(2S)-2-({[4-(3-phenyl-1H-pyrrolo[3,2-b]pyridin-2-yl)pyridin-3-yl]oxy}methyl)pyrrolidin-1-yl]-4-(pyrrolidin-1-yl)but-2-en-1-one] | 10.8 | 115 | 2.32
8 | C=CS(=O)(=O)N1CCC1(C)COc1cnccc1-c1[nH]c2cccnc2c1-c1cccc(C(F)(F)F)c1 (racemic) [Example 148, 2-(3-{[(2RS)-1-(ethenesulfonyl)-2-methylazetidin-2-yl]methoxy}pyridin-4-yl)-3-[3-(trifluoromethyl)phenyl]-1H-pyrrolo[3,2-b]pyridine] | 627 | 2780 | 105
9 | C=CC(=O)N1C[C@@H](F)C[C@H]1COc1cnccc1-c1[nH]c2cccnc2c1-c1ccccc1 [Example 114, 1-[(2S,4S)-4-fluoro-2-({[4-(3-phenyl-1H-pyrrolo[3,2-b]pyridin-2-yl)pyridin-3-yl]oxy}methyl)pyrrolidin-1-yl]prop-2-en-1-one] | 4.35 | 38.9 | 0.96
10 | C=CC(=O)N1CCC(Oc2cnccc2-c2[nH]c3cccnc3c2-c2cc(Cl)ccc2F)C1 (racemic) [Example 127, 1-[(3RS)-3-({4-[3-(5-chloro-2-fluorophenyl)-1H-pyrrolo[3,2-b]pyridin-2-yl]pyridin-3-yl}oxy)pyrrolidin-1-yl]prop-2-en-1-one] | 97.6 | 691 | 25.4
11 | C=CS(=O)(=O)N(C)CCOc1cnccc1-c1[nH]c2cccnc2c1-c1cc(C)cc(F)c1 [Example 65, N-[2-({4-[3-(3-fluoro-5-methylphenyl)-1H-pyrrolo[3,2-b]pyridin-2-yl]pyridin-3-yl}oxy)ethyl]-N-methylethenesulfonamide] | 7.22 | 267 | 2.48
12 | C=CC(=O)N1CCC[C@H]1COc1cnccc1-c1[nH]c2cccnc2c1-c1cc(C)ccc1F [Example 77, 1-{(2S)-2-[({4-[3-(2-fluoro-5-methylphenyl)-1H-pyrrolo[3,2-b]pyridin-2-yl]pyridin-3-yl}oxy)methyl]pyrrolidin-1-yl}prop-2-en-1-one] | 1.97 | 27.4 | 0.853
13 | C=CC(=O)N1CC=C[C@H]1COc1cnccc1-c1[nH]c2cccnc2c1-c1ccccc1 [Example 115, 1-[(2S)-2-({[4-(3-phenyl-1H-pyrrolo[3,2-b]pyridin-2-yl)pyridin-3-yl]oxy}methyl)-2,5-dihydro-1H-pyrrol-1-yl]prop-2-en-1-one] | 0.875 | 12.2 | 0.281
14 | C=CC(=O)N1CCC[C@H]1COc1cncc(F)c1-c1[nH]c2cccnc2c1-c1ccccc1 [Example 109, 1-[(2S)-2-({[5-fluoro-4-(3-phenyl-1H-pyrrolo[3,2-b]pyridin-2-yl)pyridin-3-yl]oxy}methyl)pyrrolidin-1-yl]prop-2-en-1-one] | 83.7 | 46.6 | 0.573
15 | C=CS(=O)(=O)N1CCC(Oc2cnccc2-c2[nH]c3cccnc3c2-c2cccc(Cl)c2)C1 (racemic) [Example 121, 3-(3-chlorophenyl)-2-(3-{[(3RS)-1-(ethenesulfonyl)pyrrolidin-3-yl]oxy}pyridin-4-yl)-1H-pyrrolo[3,2-b]pyridine] | 18 | 497 | 6.91
16 | C=CS(=O)(=O)N(C)CCOc1cnccc1-c1[nH]c2cccnc2c1-c1cc(F)ccc1F [Example 61, N-[2-({4-[3-(2,5-difluorophenyl)-1H-pyrrolo[3,2-b]pyridin-2-yl]pyridin-3-yl}oxy)ethyl]-N-methylethenesulfonamide] | 2.82 | 120 | 0.872
17 | C=CC(=O)N1CCC[C@H]1COc1cnccc1-c1[nH]c2cccnc2c1-c1ccc(F)c(OC(F)F)c1 [Example 103, 1-[(2S)-2-{[(4-{3-[3-(difluoromethoxy)-4-fluorophenyl]-1H-pyrrolo[3,2-b]pyridin-2-yl}pyridin-3-yl)oxy]methyl}pyrrolidin-1-yl]prop-2-en-1-one] | 16.9 | 650 | 3.56
18 | C=CC(=O)N1CCC[C@H]1COc1cnccc1-c1[nH]c2cccnc2c1-c1cccc(OC)c1 [Example 83, 1-{(2S)-2-[({4-[3-(3-methoxyphenyl)-1H-pyrrolo[3,2-b]pyridin-2-yl]pyridin-3-yl}oxy)methyl]pyrrolidin-1-yl}prop-2-en-1-one] | 7.63 | 132 | 2.09
19 | C=CS(=O)(=O)N(C)CCOc1cnccc1-c1[nH]c2cccnc2c1-c1cc(Cl)ccc1F [Example 60, N-[2-({4-[3-(5-chloro-2-fluorophenyl)-1H-pyrrolo[3,2-b]pyridin-2-yl]pyridin-3-yl}oxy)ethyl]-N-methylethenesulfonamide] | 2.02 | 154 | 0.809
20 | C#CC(=O)N1CCC(Oc2cnccc2-c2[nH]c3cccnc3c2-c2ccccc2)C1 (racemic) [Example 117, 1-[(3RS)-3-{[4-(3-phenyl-1H-pyrrolo[3,2-b]pyridin-2-yl)pyridin-3-yl]oxy}pyrrolidin-1-yl]prop-2-yn-1-one] | 296 | 4430 | 90.2
21 | C=CC(=O)N1CCC[C@H]1COc1cnccc1-c1[nH]c2cccnc2c1-c1ccccc1F [Example 89, 1-{(2S)-2-[({4-[3-(2-fluorophenyl)-1H-pyrrolo[3,2-b]pyridin-2-yl]pyridin-3-yl}oxy)methyl]pyrrolidin-1-yl}prop-2-en-1-one] | 2.31 | 24.2 | 0.547
22 | CN(C)C/C=C/C(=O)N1CCC[C@H]1COc1cnccc1-c1[nH]c2cccnc2c1-c1ccc(F)c(OC(F)(F)F)c1 [Example 107, (2E)-4-(dimethylamino)-1-[(2S)-2-{[(4-{3-[4-fluoro-3-(trifluoromethoxy)phenyl]-1H-pyrrolo[3,2-b]pyridin-2-yl}pyridin-3-yl)oxy]methyl}pyrrolidin-1-yl]but-2-en-1-one] | 342 | 1510 | 94.5
23 | C=CC(=O)N(C)CCOc1cnccc1-c1[nH]c2cccnc2c1-c1cc(F)ccc1F [Example 46, N-[2-({4-[3-(2,5-difluorophenyl)-1H-pyrrolo[3,2-b]pyridin-2-yl]pyridin-3-yl}oxy)ethyl]-N-methylprop-2-enamide] | 60.5 | 1150 | 27.3
24 | C=CC(=O)N1CCC(Oc2cnccc2-c2[nH]c3cccnc3c2-c2cccc(Cl)c2)C1 (racemic) [Example 119, 1-[(3RS)-3-({4-[3-(3-chlorophenyl)-1H-pyrrolo[3,2-b]pyridin-2-yl]pyridin-3-yl}oxy)pyrrolidin-1-yl]prop-2-en-1-one] | 58 | 549 | 14
25 | C=CC(=O)N1CCC(Oc2cnccc2-c2[nH]c3cccnc3c2-c2cc(C)ccc2F)C1 (racemic) [Example 124, 1-[(3RS)-3-({4-[3-(2-fluoro-5-methylphenyl)-1H-pyrrolo[3,2-b]pyridin-2-yl]pyridin-3-yl}oxy)pyrrolidin-1-yl]prop-2-en-1-one] | 121 | 904 | 26.2
26 | C=CC(=O)N1CC[C@H]1COc1cnccc1-c1[nH]c2cccnc2c1-c1ccccc1 (single isomer, unassigned) [Example 139] | 492 | 2520 | 120
